Measurements published in patent US20200216493A1, “ANTIMICROBIAL PEPTIDES” (FERRING B.V., priority 2016, published 2020).
≈ marks a conversion by molar mass, not a printed value. Bridge positions count the residues as written; N and C are the ends. Square brackets hold non-standard residues; d marks the D form. Peptide text beside a SMILES is read from it. d(aIle) = CC[C@H](C)[C@@H](N)C(=O)O; dNMeF = CN[C@H](Cc1ccccc1)C(=O)O

Experiments:
[1] = test system: E.coli; type: cell-based, Escherichia coli; details: for MIC ratio Coli/Staph: ratio of E. coli MIC to S. aureus MIC
Procedure: (§1) This assay was used to determine the minimum concentration of a test compound (i.e., an antimicrobial peptide described herein) able to inhibit the growth of a bacterial strain of interest. This is a standard method for measuring and comparing the potency of peptide-based antibacterial agents (Steinberg et al., Antimicrobial Agents and Chemotherapy 1997, 41 (8) 1738 - 1742 and Wiegand et al., Nature Protocols 2008, 3, 163-175).
(§2) The MIC is reported in units of μg/mL.
(§3) Bacterial cultures were grown by inoculating Mueller-Hinton Broth (MHB) with 3 or 4 representative colony (typical size, color, and shape) from a bacterial strain grown on a LB agar plate. Inoculated liquid cultures were grown at 37° C. with moderate shaking (200-250 rpm) until bacteria produced a visibly turbid suspension. Bacterial inoculum was approximated by measuring the optical density at 600 nm (0D600) of the bacterial culture against a sterile MHB blank. Typically, OD600=0.10 corresponds to ˜1×10^8 cfu/mL for S.aureus and OD600 =0.15 corresponds to ˜1×10^8 cfu/mL for E.coli.
(§4) Test compounds were prepared as stock solutions in vehicle at a concentration 10 times the highest concentration to be tested for antibacterial activity (usually 320 μg/mL stock solutions). 2x serial dilutions in vehicle (at 10× the final test concentrations) of the test compounds were prepared from the test compound stock solutions in a non-binding 96 well plate.
(§5) In a sterile clear flat bottom 96 well plate, 15 μL of each test compound dilution was added to 135 μL of ˜5×10^5 cfu/mL bacterial culture. Each concentration was tested in duplicate. Each experiment contained positive control wells for bacterial growth (i.e., no test compound added to bacteria) and sterility controls wells (i.e., sterile MHB and no test compounds added). 96 well plates containing bacterial cultures and test compounds were incubated at 37° C. for 16-20 hours with shaking at 200 rpm.
(§6) After incubation, the MIC of each test compound was determined by measuring the OD600 of each well using a plate reader. Wells with OD600 >0.08 were considered to have bacterial growth and wells with OD600<0.08 were considered to have no bacterial growth. The lowest concentration of test agent able to inhibit bacterial growth (0D600<0.08 after 16-20 hours) was defined as the MIC.

[2] = test system: S.aureus; type: cell-based, Staphylococcus aureus
Procedure: as §1, §2, §3, §4, §5, §6

[3] = test system: C. difficile
[4] = test system: B. fragilis
[5] = test system: E. faecium (3 isolates); type: cell-based, Enterococcus faecium; details: 20 h
Procedure: (§7) The broth microdilution susceptibility assay followed the procedure described by the Clinical and Laboratory Standards Institute (CLSI) in CLSI document M7-A10.
(§8) The following bacteria isolates were tested:
(§9) S.aureus, S.epidermidis, E.faecalis, and E.faecium colonies were grown on TSA (Tryptone Soya Agar; cat.N. P05012A -OXOID) S.pneumoniae and S.pyogenes colonies were grown on TSASB ((TSA) Agar +5% Sheep Blood; cat.N. PB5012A -OXOID). An inoculum was prepared by making a direct saline suspension of isolated colonies selected from an 18 to 24 hours agar plate incubated at 35±2 ° C. in ambient air. The suspension was adjusted to achieve a turbidity equivalent to a 0.5 McFarland turbidity standard (1 to 2 ×10^8 Colony Forming Units (CFU)) and diluted 200 fold within 15 minutes in broth. (S.aureus, S.epidermidis, E.faecalis, and E.faecium were diluted in CAMHB: Mueller Hinton Broth 2, Cation-Adjusted (cat. N. 90922 Fluka); S.pneumoniae and S.pyogenes were diluted in CAMHB +2.5% lysed horse blood. All broth contained 0.002% polysorbate 80.
(§10) 96-well plates were prepared containing 1 μL of the test compound (at 100× desired test concentration in 100% DMSO); compounds were tested at 8 final concentrations, i.e. 16 μg/mL, 8 μg/mL, 4 μg/mL, 2 μg/mL, 1 μg/mL, 0.5 μg/mL, 0.25 μg/mL, and 0.125 μg/mL. 100 μL of the broth dilution was dispensed in each well plate to have a final bacterial concentration in plate of ˜5×10^5 CFU/mL. The plates were incubated at 35±2° C. in ambient air for 20 hours.

[6] = test system: S. pyogenes (2 isolates); type: cell-based, Streptococcus pyogenes; details: 20 h
Procedure: as §7, §8, §9, §10

[7] = test system: S. aureus (14 isolates); type: cell-based, Staphylococcus aureus; details: 20 h
Procedure: as §7, §8, §9, §10

[8] = in vitro; type: cell-based; details: human, HepG2 cells
Procedure: Compounds were tested for cytotoxicity to a mammalian cell line HepG2 (Human hepatocyte carcinoma from ECACC (85011430)). Hep G2 cells were seeded into 96-well plates, 7500 cells/well in 100 μl medium (Minimum Essential Medium (Gibco 21090) supplemented with 2 mM L-Glutamine, 1% non-essential amino acids and 10% fetal bovine serum) and incubated for 20 hours at 37° C., 5% CO2. 100 μL of fresh medium containing a test compound or DMSO (for control) at 2× final concentration were added and incubated for 48 hours at 37° C., 5% CO2. The final concentration of DMSO in plate was 1%. At the end of this incubation, 20 μl MTT (Thiazolyl Blue Tetrazolium Bromide) solution 5 mg/ml in H2O (0.5 mg/ml final in well) was added to all wells. Cells were incubated with MTT for 4 hours at 37° C., 5% CO2. After incubation, medium containing MTT was removed; 200 μl of DMSO was added in each well and plates were put on a shaker for 5 minutes. Absorbance was read on a SpectraMax plate reader at 570 nm. Specific absorbance (Specific A570) was calculated by subtracting the mean absorbance values of the blank wells (no HepG2 cells) from each well. Control values were determined from wells containing cells and treated with medium+1% DMSO only (no test compound). % viability was calculated as:
(Specific A570test compound/Specific A570control)×100.

[9] = test system: E. faecalis (5 isolates); type: cell-based, Enterococcus faecalis; details: 20 h
Procedure: as §7, §8, §9, §10

[10] = test system: S. pneumoniae (8 isolates); type: cell-based, Streptococcus pneumonia; details: 20 h
Procedure: as §7, §8, §9, §10

[11] = test system: S. epidermidis (5 isolates); type: cell-based, Staphylococcus epidermidis; details: 20 h
Procedure: as §7, §8, §9, §10

Row | SMILES | MIC E. coli [1] [µg/mL] | MIC ratio Coli/Staph [1] | MIC S. aureus [2] [µg/mL] | MIC C. difficile [3] [µg/mL] | MIC B. fragilis [4] [µg/mL] | E. faecium (3) MIC90 [5] [µg/mL] | S. pyogenes (2) MIC90 [6] [µg/mL] | S. Aureus (14) MIC90 [7] [µg/mL] | viability at 48 h, 100 µM [8] [%] | E. faecalis (5) MIC90 [9] [µg/mL] | S. pneumoniae (8) MIC90 [10] [µg/mL] | S. epidermidis (MIC90) (5) [11] [µg/mL]
1 | CC[C@H](C)[C@H](NC(=O)[C@@H](Cc1ccccc1)NC)C(=O)N[C@@H](CO)C(=O)N[C@H](CCC(N)=O)C(=O)N[C@@H](C(=O)N[C@H](C(=O)N[C@@H](CO)C(=O)N[C@H]1C(=O)N[C@@H](C)C(=O)N[C@@H](CCCCCN)C(=O)N[C@@H]([C@@H](C)CC)C(=O)O[C@H]1C)[C@@H](C)CC)[C@@H](C)CC [Compound 9, H-D-MePhe-Ile-Ser-D-Gln-D-aIle-Ile-Ser-c(D-Thr-Ala-hLys-Ile)] | 16 (≈ 13 µM) | 123 | 0.13 (≈ 0.106 µM) | 0.12 (≈ 0.0975 µM) | >32 | – | – | – | – | – | – | –
2 | CC[C@H](C)[C@H](NC(=O)[C@@H](Cc1ccccc1)NC)C(=O)N[C@@H](CO)C(=O)N[C@H](CCC(N)=O)C(=O)N[C@@H](C(=O)N[C@H](C(=O)N[C@@H](CO)C(=O)N[C@H]1C(=O)N[C@@H](C)C(=O)N[C@@H](CCCNC(=N)NC)C(=O)N[C@@H]([C@@H](C)CC)C(=O)O[C@H]1C)[C@@H](C)CC)[C@@H](C)CC [Compound 11, H-D-MePhe-Ile-Ser-D-Gln-D-aIle-Ile-Ser-c(D-Thr-Ala-Arg(Me)-Ile)] | 16 (≈ 12.7 µM) | 64 | 0.25 (≈ 0.199 µM) | 0.12 (≈ 0.0953 µM) | >32 | – | – | – | – | – | – | –
3 | CC[C@@H](C)[C@@H](NC(=O)[C@@H](CCC(N)=O)NC(=O)[C@H](CO)NC(=O)[C@@H](NC(=O)[C@@H](Cc1ccccc1)NC)[C@@H](C)CC)C(=O)N[C@H](C(=O)N[C@@H](CO)C(=O)N[C@H]1C(=O)N[C@@H](C)C(=O)N[C@@H](CCCCN)C(=O)N[C@@H]([C@@H](C)CC)C(=O)O[C@H]1C)[C@@H](C)CC [Compound 12, H-D-MePhe-Ile-Ser-D-Gln-D-Ile-Ile-Ser-c(D-Thr-Ala-Lys-Ile)] | 32 (≈ 26.3 µM) | 128 | 0.25 (≈ 0.206 µM) | 0.25 (≈ 0.206 µM) | >32 | – | – | – | – | – | – | –
4 | CC[C@H](C)[C@H](NC(=O)[C@@H](Cc1ccccc1)NC)C(=O)N[C@@H](CO)C(=O)N[C@H](CCCCN)C(=O)N[C@@H](C(=O)N[C@H](C(=O)N[C@@H](CO)C(=O)N[C@H]1C(=O)N[C@@H](C)C(=O)N[C@@H](CCCCN)C(=O)N[C@@H]([C@@H](C)CC)C(=O)O[C@H]1C)[C@@H](C)CC)[C@@H](C)CC [Compound 14, H-D-MePhe-Ile-Ser-D-Lys-D-aIle-Ile-Ser-c(D-Thr-Ala-Lys-Ile)] (H-[dNMeF]IS[dK][d(aIle)]IS[dT]AKI; ester 8-C) | 4 (≈ 3.29 µM) | 16 | 0.25 (≈ 0.206 µM) | 0.06 to 0.12 | >32 | – | – | – | – | – | – | –
5 | CC[C@H](C)[C@H](NC(=O)[C@@H](Cc1ccccc1)NC)C(=O)N[C@@H](Cc1cccc2ccccc12)C(=O)N[C@H](CCC(N)=O)C(=O)N[C@@H](C(=O)N[C@H](C(=O)N[C@@H](CO)C(=O)N[C@H]1C(=O)N[C@@H](C)C(=O)N[C@@H](CCCCNC(=N)N)C(=O)N[C@@H]([C@@H](C)CC)C(=O)O[C@H]1C)[C@@H](C)CC)[C@@H](C)CC [Compound 73, H-D-MePhe-Ile-lNal-D-Gln-D-aIle-Ile-Ser-c(D-Thr-Ala-Har-Ile)] | – | – | – | – | – | 0.25 | ≤0.12 | 0.5 | 113 | 0.5 | ≤0.12 | 0.25
6 | CC[C@H](C)[C@H](NC(=O)[C@@H](Cc1ccccc1)NC)C(=O)N[C@@H](CO)C(=O)N[C@H](CCC(N)=O)C(=O)N[C@@H](C(=O)N[C@H](C(=O)N[C@@H](CO)C(=O)N[C@H]1C(=O)N[C@@H](C)C(=O)N[C@@H](CCCCN)C(=O)N[C@@H]([C@@H](C)CC)C(=O)O[C@H]1C)[C@@H](C)CC)[C@@H](C)CC [Lys10-teixobactin] | 16 (≈ 13.2 µM) | 64 | 0.25 (≈ 0.206 µM) | 0.12 (≈ 0.0986 µM) | >32 | – | – | – | – | – | – | –
7 | CC[C@H](C)[C@H](NC(=O)[C@@H](Cc1ccccc1)NC)C(=O)N[C@@H](CO)C(=O)N[C@H](CCC(N)=O)C(=O)N[C@@H](C(=O)N[C@H](C(=O)N[C@@H](CO)C(=O)N[C@H]1C(=O)N[C@@H](C)C(=O)N[C@@H](CCCNC(=N)N)C(=O)N[C@@H]([C@@H](C)CC)C(=O)O[C@H]1C)[C@@H](C)CC)[C@@H](C)CC [[Arg10]teixobactin, reference compound] | – | – | – | – | – | 2 | 0.25 | 0.5 | 115 | 2 | 0.25 | 0.5
8 | CC[C@H](C)[C@H](NC(=O)[C@@H](Cc1ccccc1)NC)C(=O)N[C@@H](CO)C(=O)N[C@H](CCC(N)=O)C(=O)N[C@@H](C(=O)N[C@H](C(=O)N[C@@H](CO)C(=O)N[C@H]1C(=O)N[C@@H](C)C(=O)N[C@@H](CCCCN)C(=O)N[C@@H]([C@@H](C)CC)C(=O)O[C@H]1C)[C@@H](C)CC)[C@@H](C)CC [[Lys10]teixobactin, reference compound] | – | – | – | – | – | 1 | 0.25 | 0.5 | 95.6 | 2 | ≤0.12 | 0.5
